Assay results as given in patent US20240251792A1, “WEED CONTROL METHOD” (SYNGENTA CROP PROTECTION AG, priority 2021, published 2024).
Like-named read-outs stand apart in the source and are kept apart here.

What was measured:
Format in all cases: in vivo
AMARE [1] = assay: Biological efficacy, post-emergence glasshouse test (Table 2); conditions: 1000 g/ha, after 12 days
Procedure, shortened: (§1)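 Pots in compost; treated at day 1 (pre-em.) or day 7 (post-em.) with 1000 g/ha in acetone/water/Tween 20. After spraying and drying, plants were watered twice daily in the glasshouse. Evaluation at 12 days, 100 = total damage.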

DIGSA [2] = assay: as above; conditions: 1000 g/ha, after 12 days
Procedure, shortened: as §1

LOLPE [3] = assay: as above; conditions: 1000 g/ha, after 12 days
Procedure, shortened: as §1

STEME [4] = assay: as above; conditions: 1000 g/ha, after 12 days
Procedure, shortened: as §1

AMARE [5] = assay: Biological efficacy, pre-emergence glasshouse test (Table 2); conditions: 1000 g/ha, after 12 days
Procedure, shortened: as §1

DIGSA [6] = assay: as above; conditions: 1000 g/ha, after 12 days
Procedure, shortened: as §1

LOLPE [7] = assay: as above; conditions: 1000 g/ha, after 12 days
Procedure, shortened: as §1

STEME [8] = assay: as above; conditions: 1000 g/ha, after 12 days
Procedure, shortened: as §1

AMARE [9] = assay: Pre-emergence biological efficacy (Table 3); conditions: 1000 g/ha, after 13 days; for pest or weed control at 1000 g/ha: Amaranthus retroflexus, 312 h, read-out: evaluation (100=total damage to plant; 0=no damage to plant)
Procedure, shortened: (§2)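 After sowing in pots and one day of glasshouse cultivation, spray is applied at the desired dose from a 50 g/l acetone/AMA stock diluted in 0.2% Genapol X080. Plants grow at 24/18 °C, 15 h light, 50% humidity, and damage is rated 0–100 after 13 days.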

ECHCG = assay: Pre-emergence biological efficacy (Table 3); conditions: 1000 g/ha, after 13 days; for pest or weed control at 1000 g/ha: Echinochloa crus-galli, 312 h, read-out: evaluation (100=total damage to plant; 0=no damage to plant)
Procedure, shortened: as §2

IPOHE = assay: Pre-emergence biological efficacy (Table 3); conditions: 1000 g/ha, after 13 days; for pest or weed control at 1000 g/ha: Ipomoea hederacea, 312 h, read-out: evaluation (100=total damage to plant; 0=no damage to plant)
Procedure, shortened: as §2

LOLPE [10] = assay: Pre-emergence biological efficacy (Table 3); conditions: 1000 g/ha, after 13 days
Procedure, shortened: as §2

SETFA = assay: Pre-emergence biological efficacy (Table 3); conditions: 1000 g/ha, after 13 days; for pest or weed control at 1000 g/ha: Setaria faberi, 312 h, read-out: evaluation (100=total damage to plant; 0=no damage to plant)
Procedure, shortened: as §2

SOLNI = assay: Pre-emergence biological efficacy (Table 3); conditions: 1000 g/ha, after 13 days
Procedure, shortened: as §2

weeds and/or crops = assay: Post-emergence biological efficacy (Table 4); conditions: 1000 g/ha, evaluated after 13 days; for pest or weed control at 1000 g/ha: 312 h
Procedure, shortened: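 Weeds and crops were grown 14 days in a glasshouse, then sprayed post-emergence with compound formulated in acetone/F50 and diluted in 0.2% Genapol X080 to the final dose. Damage was scored after 13 days on a 0–100 scale, where 100 is total damage.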

[11] = Amaranthus retroflexus, AMARE, read-out: damage to plant AMARE (100=total damage; 0=no damage)
[12] = Echinochloa crus-galli, ECHCG, read-out: damage to plant ECHCG (100=total damage; 0=no damage)
[13] = Ipomoea hederacea, IPOHE, read-out: damage to plant IPOHE (100=total damage; 0=no damage)
[14] = Setaria faberi, SETFA, read-out: damage to plant SETFA (100=total damage; 0=no damage)

Q: For `COc1ccccc1C(F)(F)C(=O)O` [Compound 1-9], which “score (100=total damage to plant, 0=no damage to plant)” value (AMARE [1]) is on record?
A: 90

Q: What about the “score (100=total damage to plant, 0=no damage to plant)” value (DIGSA [2]) of the same compound?
A: 0

Q: And the “score (100=total damage to plant, 0=no damage to plant)” value (LOLPE [3])?
A: 0

Q: And the “score (100=total damage to plant, 0=no damage to plant)” value (STEME [4])?
A: 80

Q: What about the “score (100=total damage to plant, 0=no damage to plant)” value (AMARE [5]) of the same compound?
A: 80

Q: What about the “score (100=total damage to plant, 0=no damage to plant)” value (DIGSA [6]) of the same compound?
A: 0

Q: What about the “score (100=total damage to plant, 0=no damage to plant)” value (LOLPE [7]) of the same compound?
A: 0

Q: And the “score (100=total damage to plant, 0=no damage to plant)” value (STEME [8])?
A: 60

Q: And the “evaluation (100=total damage to plant; 0=no damage to plant)” value (AMARE [9])?
A: 70

Q: And the “evaluation (100=total damage to plant; 0=no damage to plant)” value (ECHCG)?
A: 20

Q: And the “evaluation (100=total damage to plant; 0=no damage to plant)” value (IPOHE)?
A: 60

Q: And the “evaluation (100=total damage to plant; 0=no damage to plant)” value (LOLPE [10])?
A: 20

Q: And the “evaluation (100=total damage to plant; 0=no damage to plant)” value (SETFA)?
A: 20

Q: What about the “evaluation (100=total damage to plant; 0=no damage to plant)” value (SOLNI) of the same compound?
A: 90

Q: What about the “damage to plant AMARE (100=total damage; 0=no damage)” value (weeds and/or crops; AMARE) of the same compound?
A: 70

Q: And the “damage to plant ECHCG (100=total damage; 0=no damage)” value (weeds and/or crops; ECHCG)?
A: 0

Q: What about the “damage to plant IPOHE (100=total damage; 0=no damage)” value (weeds and/or crops; IPOHE) of the same compound?
A: 60

Q: What about the “damage to plant LOLPE (100=total damage; 0=no damage)” value (weeds and/or crops) of the same compound?
A: 0

Q: And the “damage to plant SETFA (100=total damage; 0=no damage)” value (weeds and/or crops; SETFA)?
A: 0

Q: What about the “damage to plant SOLNI (100=total damage; 0=no damage)” value (weeds and/or crops) of the same compound?
A: 60

Q: With `O=C(O)C(F)(F)c1cccc2ccccc12` [Compound 1-397, 2,2-Difluoro-2-(1-naphthyl)acetic acid] as the compound, how does the “score (100=total damage to plant, 0=no damage to plant)” value (AMARE [1]) read?
A: 70

Q: And the “score (100=total damage to plant, 0=no damage to plant)” value (DIGSA [2])?
A: 0

Q: What about the “score (100=total damage to plant, 0=no damage to plant)” value (LOLPE [3]) of the same compound?
A: 0

Q: And the “score (100=total damage to plant, 0=no damage to plant)” value (STEME [4])?
A: 80

Q: What about the “score (100=total damage to plant, 0=no damage to plant)” value (AMARE [5]) of the same compound?
A: 90

Q: What about the “score (100=total damage to plant, 0=no damage to plant)” value (DIGSA [6]) of the same compound?
A: 30

Q: And the “score (100=total damage to plant, 0=no damage to plant)” value (LOLPE [7])?
A: 70

Q: And the “score (100=total damage to plant, 0=no damage to plant)” value (STEME [8])?
A: 90

Q: What about the pest or weed control at 1000 g/ha (AMARE [9]) of the same compound?
A: 80%

Q: What about the pest or weed control at 1000 g/ha (ECHCG) of the same compound?
A: 60%

Q: And the pest or weed control at 1000 g/ha (IPOHE)?
A: 80%

Q: What about the “evaluation (100=total damage to plant; 0=no damage to plant)” value (LOLPE [10]) of the same compound?
A: 40

Q: And the pest or weed control at 1000 g/ha (SETFA)?
A: 20%

Q: What about the “evaluation (100=total damage to plant; 0=no damage to plant)” value (SOLNI) of the same compound?
A: 100

Q: What about the pest or weed control at 1000 g/ha (weeds and/or crops; [11]) of the same compound?
A: 70%

Q: What about the pest or weed control at 1000 g/ha (weeds and/or crops; [12]) of the same compound?
A: 20%

Q: What about the pest or weed control at 1000 g/ha (weeds and/or crops; [13]) of the same compound?
A: 70%

Q: What about the “damage to plant LOLPE (100=total damage; 0=no damage)” value (weeds and/or crops) of the same compound?
A: 10

Q: What about the “damage to plant SOLNI (100=total damage; 0=no damage)” value (weeds and/or crops) of the same compound?
A: 80

Q: And the pest or weed control at 1000 g/ha (weeds and/or crops; [14])?
A: 10%

Q: Which results are given for `COC(=O)C(F)(F)c1c(Cl)cccc1OC` [Compound 2-65, Methyl 2-(2-chloro-6-methoxy-phenyl)-2,2-difluoro-acetate]?
A: pest or weed control at 1000 g/ha (AMARE [9]): 50%; pest or weed control at 1000 g/ha (ECHCG): 0%; pest or weed control at 1000 g/ha (IPOHE): 70%; evaluation (100=total damage to plant; 0=no damage to plant) (LOLPE [10]): 0; pest or weed control at 1000 g/ha (SETFA): 0%; evaluation (100=total damage to plant; 0=no damage to plant) (SOLNI): 10; pest or weed control at 1000 g/ha (weeds and/or crops; [11]): 70%; pest or weed control at 1000 g/ha (weeds and/or crops; [12]): 40%; pest or weed control at 1000 g/ha (weeds and/or crops; [13]): 70%; damage to plant LOLPE (100=total damage; 0=no damage) (weeds and/or crops): 0; damage to plant SOLNI (100=total damage; 0=no damage) (weeds and/or crops): 30; pest or weed control at 1000 g/ha (weeds and/or crops; [14]): 10%
